In patent US8633245B2, “PAI-1 inhibitor” (Institute of Medicinal Molecular Design, Inc., priority 2008, dated 2014):
Blank lines part the entries; values can stand above or below the compound they belong to.

Columns and labels:
[1] = system: thrombus in AV shunt; experiment: Test Example 5: anti-thrombotic activity (rat AV shunt model); format: in vivo; conditions: mean ± S.E., n=5, vehicle 72.7 ± 2.7
Protocol: AV shunt model using 7-week old male Crlj: CD (SD) rats were prepared, and anti thrombotic activities when the compounds according to the present invention were administered orally were examined.
Required amount of the test compounds were weighed and suspended by adding 0.5% CMC (carboxymethylcellulose)-Na solution little by little, and the solutions (10 mg/kg or 30 mg/kg solution) were prepared so that their final concentration became 2 mg/ml or 6 mg/ml using a graduated cylinder. 5 ml was prepared for 1 course.
To 7-week old Crlj: CD (SD) male rats, 5 ml/kg of vehicle (0.5% CMC-Na solution) or 5 ml/kg of the administering solution of the test compound (10 mg/kg or 30 mg/kg) were administered orally for 4 days. The administration on the 4th day was carried out about 1 hour before the following perfusion start.
On the connected part where the silk thread was through, parafilm was wrapped around to avoid blood leakage.
Rats were anesthetized with pentobarbital (50 mg/kg; intraperitoneally). Saline was filled in the above catheter, and each of the ends of the catheter was inserted in right carotid artery and left carotid artery, respectively, and blood was circulated. 30 minutes later, the catheter was pinched with forceps to stop blood flow, and tube parts where the silk thread was through were cut and removed. The silk thread was carefully removed from the tubes, remaining wet weight was weighed after removing the liquid phase with filter paper, and further subtraction of the weight of the silk thread, gave the thrombus weight.
For the thrombus weight in each group, an average value±standard error (S.E.) was calculated. For the significance test between the vehicle administered group and the compound according to the present invention administered group, Dunnett's multiple comparison was carried out (significance level 5%). For the test, the SAS System Release 8.2 (TS2M0) for Windows (Registered Trademark) (SAS Institute Inc.) and its cooperative system EXSAS Ver. 7.10 (Arm Systex Co. Ltd.) were employed.

[2] = molecular target: T1, recombinant human PAI-1 (Homo sapiens, UniProt P05121); experiment: Test Example 1: human PAI-1 inhibitory activity (tPA fluorogenic substrate, pH 7.5 Tris buffer); format: biochemical; conditions: Tris buffer
T1 construct: purchased Molecular Innovations, Inc
T1 sequence (P05121 24-402): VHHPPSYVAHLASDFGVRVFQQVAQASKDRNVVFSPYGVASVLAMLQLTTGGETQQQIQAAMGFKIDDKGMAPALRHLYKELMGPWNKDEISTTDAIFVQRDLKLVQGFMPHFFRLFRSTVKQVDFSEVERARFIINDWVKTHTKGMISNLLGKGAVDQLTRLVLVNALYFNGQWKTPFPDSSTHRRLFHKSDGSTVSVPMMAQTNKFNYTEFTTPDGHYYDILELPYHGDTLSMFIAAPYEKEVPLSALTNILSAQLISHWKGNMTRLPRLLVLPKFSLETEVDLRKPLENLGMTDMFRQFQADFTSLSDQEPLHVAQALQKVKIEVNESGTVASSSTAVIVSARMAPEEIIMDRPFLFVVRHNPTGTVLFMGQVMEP
Protocol: 50 mM Tris, 150 mM NaCl, 10 μg/ml BSA, 0.01% Tween80 (SIGMA-ALDRICH Corporation)

[3] = molecular target: T2, recombinant rat PAI-1 (Rattus norvegicus, UniProt P20961); experiment: Test Example 3: rat PAI-1 inhibitory activity (as Test Example 2 with rat PAI-1); format: biochemical; conditions: rat PAI-1
T2 construct: purchased Molecular Innovations, Inc
T2 sequence (P20961 24-402): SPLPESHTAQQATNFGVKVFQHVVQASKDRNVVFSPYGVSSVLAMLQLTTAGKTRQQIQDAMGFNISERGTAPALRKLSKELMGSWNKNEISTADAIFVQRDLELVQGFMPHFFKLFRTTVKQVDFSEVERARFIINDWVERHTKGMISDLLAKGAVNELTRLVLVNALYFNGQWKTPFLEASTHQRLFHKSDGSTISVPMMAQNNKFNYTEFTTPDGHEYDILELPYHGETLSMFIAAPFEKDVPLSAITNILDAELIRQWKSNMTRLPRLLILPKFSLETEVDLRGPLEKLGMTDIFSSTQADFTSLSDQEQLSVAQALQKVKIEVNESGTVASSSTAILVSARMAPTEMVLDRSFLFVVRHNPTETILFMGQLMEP
Protocol: To this solution, 6 μl of 80 nM recombinant human PAI-1 (Molecular Innovations, Inc.) solution prepared with Tris buffer was added, and the plate was incubated for 5 minutes at room temperature. Furthermore, 30 μl of 800 IU/ml two-chain tPA (Activity Standard; American diagnostica, inc.) prepared with Tris buffer was added, and the mixed solution was incubated for 15 minutes at room temperature. Then, 30 μl of 400 μM fluorogenic substrate (Pyr-Gly-Arg-MCA; Peptide Institute, Inc.) for tPA prepared with Tris buffer was added and reacted for 30 minutes at room temperature.

[4] = molecular target: T1, recombinant human PAI-1; experiment: Test Example 2: human PAI-1 inhibitory activity (tPA fluorogenic substrate, pH 7.4 HEPES buffer); format: biochemical
Protocol: 0.1 M HEPES, 0.1 M NaCl. 1 mM EDTA. 0.1% Polyethylene glycol 8,000 (Hampton Research Corporation),
2 mM Dimethyldecylphoshine oxide [Apo-10] (Fluka Corporation)

[5] = molecular target: T1, recombinant human PAI-1; experiment: Test Example 4: human PAI-1 inhibitory activity (amount of PAI-1 bound to plate-coated tPA, ELISA); format: binding; conditions: read-out: Inhibition Rate of PAI-1 Activity (%)
Protocol: 100 μl of tPA solution, where one-chain recombinant tPA (hereinafter referred to as tPA; American diagnostica, inc.) had been diluted with Buffer A to achieve a concentration of 10 μg/ml, was added to each well of a 96-well plate (Nunc Maxisorp), and the plate was incubated for one night at 4° C. to be coated with tPA. Then, after suction of tPA solution from the 96-well plate, the plate was rinsed successively with Buffer A and Buffer B.
To Buffer B, solutions of the compound according to the present invention dissolved with DMSO (final DMSO concentration: 0.2%) and recombinant human PAI-1 (Molecular Innovations, Inc.) were added. The mixtures were blended so that the final concentrations would be 0.1 to 3.0 μM and 50 ng/ml respectively, and were incubated for 15 minutes on ice. These mixed solutions were added to the rinsed 96-well plate at 100 μl/well, and incubated for 60 minutes at room temperature. To prepare a calibration curve, PAI-1 solutions without the compound according to the present invention (solutions where the final concentrations being 100, 50, 25, 12.5, 6.25, 3.13, or 1.56 ng/ml PAI-1) were added at 100 μl/well, and the plate was incubated for 60 minutes at room temperature, as standard.
After incubation, the reaction mixture was removed by suction, and each well was rinsed with Wash Buffer. Next, anti-human PAI-1 monoclonal antibody (PROGEN Inc.) diluted with Buffer C to be 3.0 μg/ml was added to the 96-well plate at 100 μl/well, and the plate was incubated for 1 hour at room temperature. After rinsing each well with Wash Buffer, alkaline phosphatase-labeled goat anti-mouse IgG (H+L) (Jackson ImmunoResearch, Inc.) diluted with Buffer D to be 0.12 μg/ml was added at 100 μl/well, and the plate was incubated for 1 hour at room temperature. After rinsing each well with Wash Buffer, 1.0 mg/ml p-Nitrophenyl Phosphate (SIGMA) was added to the 96-well plate at 100 μl/well to start the reaction. After 30 to 60 minutes, 25 μl of 0.5 N NaOH was added to stop the reaction, and the absorbance was measured at 405 nm using a multiplate reader (GENios; TECAN G.M.B.H.). Based on the calibration curve prepared from the standard wells, amounts of PAI-1 bound to tPA in the wells that had been treated with the compound according to the present invention were calculated, and the PAI-1 inhibition rates by the compounds according to the present invention were obtained by the following equation. [PAI-1 Inhibition Rate (%)]=[1−(amount of PAI-1 bound to tPA on the well by treatment with the compound according to the present invention)/(amount of PAI-1 bound to tPA on the well by treatment with PAI-1 solution not including the compound according to the present invention (solution having the final concentration of 50 ng/ml PAI-1)]×100

SMILES: CC(C)(C)c1ccc(COc2ccc(-c3ccc(OC(F)(F)F)cc3)cc2CCC(=O)O)cc1 [Compound 5]
Thrombus Weight ([1]; 10 mg/kg/day orally for 4 days): 57.5 ± 5.0 mg

Inhibition Rate of PAI-1 Activity (%) ([2]; Compound Concentration 5 μM): 37% | Inhibition Rate of PAI-1 Activity (%) ([2]; Compound Concentration 10 μM): 67% | Inhibition Rate of PAI-1 Activity (%) ([2]; Compound Concentration 25 μM): 97%
SMILES: CN(C(=O)C(=O)O)c1cc(-c2ccc(OC(F)(F)F)cc2)ccc1OCc1ccc(C(C)(C)C)cc1 [Compound 17]
Thrombus Weight ([1]; 30 mg/kg/day orally for 4 days): 60.4 ± 3.8 mg

SMILES: CC(C)(C)c1ccc(CN(C(=O)C(=O)O)c2ccc(-c3ccc(OC(F)(F)F)cc3)cc2)cc1 [Compound 129]
Thrombus Weight ([1]; 10 mg/kg/day orally for 4 days): 56.7 ± 3.8 mg

IC50 ([3]; calculated from the inhibition rates): 1460 nM | inhibition at 0.3 µM ([3]; compound concentration 0.3 μM, read-out: Inhibition Rate of PAI-1 Activity (%)): 4% | inhibition at 1 µM ([3]; compound concentration 1 μM, read-out: Inhibition Rate of PAI-1 Activity (%)): 20% | inhibition at 3 µM ([3]; compound concentration 3 μM, read-out: Inhibition Rate of PAI-1 Activity (%)): 93% | inhibition at 10 µM ([3]; compound concentration 10 μM, read-out: Inhibition Rate of PAI-1 Activity (%)): > 99% | inhibition at 0.1 µM ([4]; Compound Concentration 0.1 μM, HEPES buffer, read-out: Inhibition Rate of PAI-1 Activity (%)): 0% | inhibition at 0.3 µM ([4]; Compound Concentration 0.3 μM, HEPES buffer, read-out: Inhibition Rate of PAI-1 Activity (%)): 9% | inhibition at 1 µM ([4]; Compound Concentration 1 μM, HEPES buffer, read-out: Inhibition Rate of PAI-1 Activity (%)): 55% | inhibition at 3 µM ([4]; Compound Concentration 3 μM, HEPES buffer, read-out: Inhibition Rate of PAI-1 Activity (%)): 97% | IC50 ([4]; human PAI-1, calculated from the inhibition rates): 900 nM | inhibition at 0.3 µM ([5]; Compound Concentration 0.3 μM): 13% | inhibition at 1 µM ([5]; Compound Concentration 1 μM): 28% | inhibition at 3 µM ([5]; Compound Concentration 3 μM): 50% | inhibition at […] ([2]; Compound Concentration 2.5 μM, read-out: Inhibition Rate of PAI-1 Activity (%)): 49% | inhibition at 5 µM ([2]; Compound Concentration 5 μM, read-out: Inhibition Rate of PAI-1 Activity (%)): 78% | inhibition at 10 µM ([2]; Compound Concentration 10 μM, read-out: Inhibition Rate of PAI-1 Activity (%)): 93%
SMILES: CCC(CC)Oc1ccc(-c2ccc(OC(F)(F)F)cc2)cc1N(CCCc1ccccc1)C(=O)C(=O)O [Compound 233]
